Results as given in ChEMBL document CHEMBL4373747 (ACS Med Chem Lett, 2020).

Experiments:
[1] = Efflux ratio of apparent permeability in human Caco2 cells incubated for 2 hrs by LC/MS analysis; type: ADME, cell-based, Caco-2; conditions: Caco-2
Histone deacetylase 3 = Histone deacetylase 3 (Homo sapiens, UniProt O15379); test: Inhibition of recombinant full length human HDAC3 expressed in baculovirus infected Sf9 cells using FAM-RHKK-Ac as substrate incubated for 3 hrs by electrophoretic mobility shift assay
Histone deacetylase 3, sequence (O15379 whole entry): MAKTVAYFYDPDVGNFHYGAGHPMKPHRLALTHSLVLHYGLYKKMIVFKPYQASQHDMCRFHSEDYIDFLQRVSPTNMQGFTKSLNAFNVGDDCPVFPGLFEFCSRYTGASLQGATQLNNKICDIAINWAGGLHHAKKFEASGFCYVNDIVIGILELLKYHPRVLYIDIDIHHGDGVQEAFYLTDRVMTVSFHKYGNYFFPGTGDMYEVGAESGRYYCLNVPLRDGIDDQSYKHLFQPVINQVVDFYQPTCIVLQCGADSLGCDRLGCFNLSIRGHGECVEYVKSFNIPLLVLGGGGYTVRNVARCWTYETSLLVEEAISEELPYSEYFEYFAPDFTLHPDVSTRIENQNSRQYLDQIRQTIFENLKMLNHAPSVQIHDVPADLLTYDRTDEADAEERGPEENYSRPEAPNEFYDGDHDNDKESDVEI

[2] = molecular target: T1, Protein deacetylase HDAC6 (Homo sapiens, UniProt Q9UBN7); test: Inhibition of recombinant full length human HDAC6 expressed in baculovirus infected Sf9 cells using FAM-RHKK-Ac as substrate incubated for 5 hrs by electrophoretic mobility shift assay
T1 sequence (Q9UBN7 whole entry): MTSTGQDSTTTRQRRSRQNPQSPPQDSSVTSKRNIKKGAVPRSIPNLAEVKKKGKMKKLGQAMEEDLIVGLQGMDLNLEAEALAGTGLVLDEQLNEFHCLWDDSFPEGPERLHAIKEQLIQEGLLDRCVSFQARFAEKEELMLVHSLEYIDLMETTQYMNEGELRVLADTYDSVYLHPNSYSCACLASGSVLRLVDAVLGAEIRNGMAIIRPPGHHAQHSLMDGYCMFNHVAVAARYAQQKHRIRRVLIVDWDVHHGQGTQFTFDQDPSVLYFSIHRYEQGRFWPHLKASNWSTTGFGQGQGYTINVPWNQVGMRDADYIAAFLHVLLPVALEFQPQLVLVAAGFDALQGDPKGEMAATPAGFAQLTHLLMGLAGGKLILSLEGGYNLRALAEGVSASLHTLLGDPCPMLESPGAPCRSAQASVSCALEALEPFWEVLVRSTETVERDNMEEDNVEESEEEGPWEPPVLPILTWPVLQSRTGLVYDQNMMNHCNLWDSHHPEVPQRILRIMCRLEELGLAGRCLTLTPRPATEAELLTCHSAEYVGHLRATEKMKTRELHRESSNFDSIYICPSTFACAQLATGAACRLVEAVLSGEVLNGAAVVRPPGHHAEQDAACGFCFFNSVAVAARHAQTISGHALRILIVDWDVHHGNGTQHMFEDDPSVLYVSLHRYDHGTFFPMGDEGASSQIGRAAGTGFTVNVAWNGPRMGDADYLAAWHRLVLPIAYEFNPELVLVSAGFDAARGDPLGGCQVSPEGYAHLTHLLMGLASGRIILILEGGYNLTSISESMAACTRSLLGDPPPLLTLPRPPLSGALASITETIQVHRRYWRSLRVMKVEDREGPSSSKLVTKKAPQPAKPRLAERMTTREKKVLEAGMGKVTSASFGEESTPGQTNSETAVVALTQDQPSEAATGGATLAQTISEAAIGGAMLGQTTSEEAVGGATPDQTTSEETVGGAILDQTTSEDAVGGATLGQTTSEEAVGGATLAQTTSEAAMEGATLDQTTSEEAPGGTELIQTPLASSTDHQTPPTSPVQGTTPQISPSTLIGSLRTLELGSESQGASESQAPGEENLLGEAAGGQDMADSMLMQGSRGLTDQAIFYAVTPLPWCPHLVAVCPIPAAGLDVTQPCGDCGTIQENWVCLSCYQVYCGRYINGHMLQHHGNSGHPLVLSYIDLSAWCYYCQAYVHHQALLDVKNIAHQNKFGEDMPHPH

Histone deacetylase 8 = molecular target: T2, Histone deacetylase 8 (Homo sapiens, UniProt Q9BY41); test: Inhibition of recombinant full length human HDAC8 expressed in baculovirus infected Sf9 cells using FAM-RHKK-TFAc as substrate incubated for 3 hrs by electrophoretic mobility shift assay
T2 sequence (Q9BY41 whole entry): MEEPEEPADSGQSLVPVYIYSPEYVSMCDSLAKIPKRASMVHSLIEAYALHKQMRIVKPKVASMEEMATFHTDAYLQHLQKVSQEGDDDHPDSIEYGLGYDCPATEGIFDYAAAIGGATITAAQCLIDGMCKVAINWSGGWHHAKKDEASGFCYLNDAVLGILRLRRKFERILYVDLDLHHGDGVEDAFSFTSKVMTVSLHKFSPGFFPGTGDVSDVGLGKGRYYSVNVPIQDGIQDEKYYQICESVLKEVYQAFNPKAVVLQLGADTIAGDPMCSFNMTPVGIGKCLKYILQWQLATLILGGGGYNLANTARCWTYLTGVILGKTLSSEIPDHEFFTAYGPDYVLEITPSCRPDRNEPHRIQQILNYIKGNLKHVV

Histone deacetylase 11 = molecular target: T3, Histone deacetylase 11 (Homo sapiens, UniProt Q96DB2); test: Inhibition of recombinant full length human HDAC11 expressed in baculovirus infected Sf9 cells using FAM-RHKK-TFAc as substrate incubated for 17 hrs by electrophoretic mobility shift assay
T3 sequence (Q96DB2 whole entry): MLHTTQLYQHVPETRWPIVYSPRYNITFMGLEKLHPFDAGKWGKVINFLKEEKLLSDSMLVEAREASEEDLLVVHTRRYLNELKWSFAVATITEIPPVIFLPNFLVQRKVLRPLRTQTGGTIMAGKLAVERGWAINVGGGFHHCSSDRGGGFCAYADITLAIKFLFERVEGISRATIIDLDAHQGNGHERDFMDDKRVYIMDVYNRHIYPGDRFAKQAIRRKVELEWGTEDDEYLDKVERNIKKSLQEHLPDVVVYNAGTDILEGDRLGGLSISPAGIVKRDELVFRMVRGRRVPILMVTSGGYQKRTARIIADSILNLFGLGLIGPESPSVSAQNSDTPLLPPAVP

[3] = molecular target: T1, Protein deacetylase HDAC6; test: Inhibition of recombinant full length human HDAC6 expressed in baculovirus infected Sf9 cells assessed as inhibitory constant using FAM-RHKK-Ac as substrate incubated for 5 hrs by electrophoretic mobility shift assay
MV4-11 = test: Cytotoxicity against human MV4-11 cells assessed as reduction in cell viability incubated for 72 hrs by cell-titer blue assay; type: functional, cell-based; conditions: MV4-11, 72 h
MOLM-13 = test: Cytotoxicity against human MOLM13 cells assessed as reduction in cell viability incubated for 72 hrs by cell-titer blue assay; type: functional, cell-based; conditions: MOLM-13, 72 h
MDA-MB-231 = test: Cytotoxicity against human MDA-MB-231 cells assessed as reduction in cell viability incubated for 72 hrs by cell-titer blue assay; type: functional, cell-based; conditions: MDA-MB-231, 72 h
MDA-MB-468 = test: Cytotoxicity against human MDA-MB-468 cells assessed as reduction in cell viability incubated for 72 hrs by cell-titer blue assay; type: functional, cell-based; conditions: MDA-MB-468, 72 h
[4] = Cytotoxicity against human MRC9 cells assessed as reduction in cell viability incubated for 72 hrs by cell-titer blue assay; type: cell-based; conditions: MRC9, 72 h

Structure (SMILES) | efflux ratio at 2 h [1] | IC50 (Histone deacetylase 3) | IC50 [2] | IC50 (Histone deacetylase 8) | IC50 (Histone deacetylase 11) | Ki [3] | IC50 (MV4-11) | IC50 (MOLM-13) | IC50 (MDA-MB-231) | IC50 (MDA-MB-468) | IC50 [4]
C[C@H]1O[C@@H](O[C@H]2[C@@H](O)C[C@H](O[C@H]3[C@@H](O)C[C@H](O[C@H]4CC[C@@]5(C)[C@H](CC[C@@H]6[C@@H]5C[C@@H](O)[C@]5(C)[C@@H](C7=CC(=O)OC7)CC[C@]65O)C4)O[C@@H]3C)O[C@@H]2C)C[C@H](O)[C@@H]1O [DIGOXIN] | 73 |  |  |  |  |  |  |  |  |  | 
CN(C(=O)CN(Cc1c(F)c(F)c(F)c(F)c1F)S(=O)(=O)c1ccc(F)cc1)c1ccc(C(=O)NO)cc1 |  | 213 nM | 20.1 nM | 224 nM | > 1000 nM | 573 nM | 3240 nM | 14100 nM | > 25000 nM | > 25000 nM | > 25000 nM
CC(C)(C)c1ccc(CNc2ccc(C(=O)NO)cc2)cc1 |  | 503 nM | 110 nM | > 1000 nM | > 1000 nM | 451 nM | 3490 nM | 9470 nM | > 25000 nM | > 25000 nM | 16100 nM
O=C(NO)c1ccc(N(Cc2ccccc2)C(=O)CN(Cc2c(F)c(F)c(F)c(F)c2F)S(=O)(=O)c2ccc(F)cc2)cc1 |  | 132 nM | 1.49 nM | 90.6 nM | 51.9 nM | 1860 nM | 5800 nM | 8050 nM |  |  | 
CC(C)(C)c1ccc(CN(C(=O)CNS(=O)(=O)c2ccc(F)cc2)c2ccc(C(=O)NO)cc2)cc1 |  | 372 nM | 52.8 nM | 28 nM | 665 nM | 293 nM | 3330 nM | 5110 nM |  | > 12500 nM | 10800 nM
CC(C)(C)c1ccc(CN(C(=O)CN(Cc2c(F)c(F)c(F)c(F)c2F)S(C)(=O)=O)c2ccc(C(=O)NO)cc2)cc1 |  | 213 nM | 27.7 nM | 133 nM | > 1000 nM | 1090 nM | 1620 nM | 2980 nM | > 12500 nM | > 25000 nM | > 25000 nM
COCCc1ccc(OCC(O)CNC(C)C)cc1 (centres undefined) [METOPROLOL] | 1 |  |  |  |  |  |  |  |  |  | 
CN(C(=O)CN(C)S(=O)(=O)c1ccc(F)cc1)c1ccc(C(=O)NO)cc1 |  | 708 nM | 117 nM | 573 nM | > 1000 nM | 793 nM | 14600 nM | 24800 nM |  |  | 
CC(C)(C)OC(=O)N(Cc1ccc(C(C)(C)C)cc1)c1ccc(C(=O)NO)cc1 |  | 374 nM | 28.2 nM | 635 nM | 837 nM | 201 nM | 3120 nM | 10300 nM | > 25000 nM | > 25000 nM | 9490 nM
CN(CC(=O)N(Cc1ccc(C(C)(C)C)cc1)c1ccc(C(=O)NO)cc1)S(=O)(=O)c1ccc(F)cc1 |  | 492 nM | 55.2 nM | 37.9 nM | 697 nM | 768 nM | 3410 nM | 5460 nM | > 25000 nM | > 12500 nM | 11800 nM
CC(=O)N(Cc1ccc(C(C)(C)C)cc1)c1ccc(C(=O)NO)cc1 |  | 276 nM | 71.3 nM | 85.4 nM | > 1000 nM | 199 nM | 4240 nM | 10600 nM | > 25000 nM | > 25000 nM | 
